# Data taken from publication PMC5435703 (Scientific Reports, 2017).
# Read-outs that look alike come from different tables or passages of the source. Marks after values point to notes of the source that are not given here.
# Tests used:
# MRSA BAA-1707 [1] = assay: MIC broth microdilution assay; type: cell-based, Staphylococcus aureus
# MRSE 35984 [2] = assay: MIC broth microdilution assay; type: cell-based, Staphylococcus epidermidis
# VRE 700221 [3] = assay: MIC broth microdilution assay; type: cell-based, Enterococcus faecium
# MRSA BAA-1707 [4] = assay: Calgary Biofilm Device (CBD) MBC/MBEC assay; type: cell-based, Staphylococcus aureus
# VRE 700221 [5] = assay: Calgary Biofilm Device (CBD) MBC/MBEC assay; type: cell-based, Enterococcus faecium; conditions: for VRE 700221 MBEC: biofilm eradication; for MBC: read-out: VRE 700221 MBC
# MRSA-1707 biofilms = assay: CBD pulse biofilm eradication experiment; type: cell-based, Staphylococcus aureus; conditions: two subsequent 24 hour compound treatment phases
# MRSA-1 = assay: MIC broth microdilution assay; type: cell-based, Staphylococcus aureus; conditions: for MIC: Staphylococcus aureus, MRSA
# MRSA BAA-1707 [6] = assay: MIC assay with metal(II) cation co-treatment; type: cell-based, Staphylococcus aureus
# MRSE 35984 [7] = assay: Calgary Biofilm Device (CBD) MBC/MBEC assay; type: cell-based, Staphylococcus epidermidis; conditions: for MBC: read-out: MRSE 35984 MBC
# MRSA BAA-44 = assay: MIC broth microdilution assay; type: cell-based; conditions: Staphylococcus aureus
# MtB H37Ra = assay: MIC assay for Mycobacterium tuberculosis; type: cell-based; conditions: 168 h, seven days
# [8] = LDH release assay for HeLa cytotoxicity; type: cell-based; conditions: human, HeLa cells; LDH release, 24 hours; tested at 25, 50 and 100 µM; read-out: HeLa Cytotox. IC50
# UV-Vis metal(II) binding = type: physicochemical; conditions: UV-Vis kinetics, compared to HP 1
# Procedure: The rates of halogenated phenazine-copper(II) complex formation were independently evaluated via UV-Vis spectrometry following addition of 0.5 equivalents copper(II) sulfate to stirring solutions of HP (10 mM, 4 mL) in dimethyl sulfoxide. Spectral scanning was performed from 200 to 800 nm in 2 nm increments. The disappearance of HPs 1, 17 and 22 was observed over the indicated time points. The halogenated phenazine-copper(II) complex formation yielded a loss in absorbance due to precipitation.
# four MRSA isolates = assay: MIC assays, panel of four MRSA isolates; type: cell-based; conditions: Staphylococcus aureus, range over isolates, read-out: MIC against a panel of four MRSA isolates
# [9] = Hemolysis assay with red blood cells; conditions: human, pH 7.2
# MRSA-2 = assay: MIC broth microdilution assay; type: cell-based, Staphylococcus aureus; conditions: Table 1, read-out: MIC MRSA-2
# S. epi 12228 = assay: MIC broth microdilution assay; type: cell-based, Staphylococcus epidermidis; conditions: Staphylococcus epidermidis, 12228; Table 1; read-out: MIC S. epi 12228
# HeLa cells = assay: LDH release assay for HeLa cytotoxicity; type: cell-based; conditions: 100 µM
# [10] = Chemical stability in aqueous formulations; type: physicochemical; conditions: room temperature
# [11] = Table 1, read-out: MIC MRSE 35984
# [12] = Table 3, read-out: MRSE 35984 MIC
# [13] = CBD, planktonic killing, 24 hours treatment, read-out: MRSA BAA-1707 MBC
# [14] = Staphylococcus aureus, Table 1, three independent experiments, read-out: MIC MRSA BAA-1707
# [15] = Staphylococcus aureus, Table 3, read-out: MRSA BAA-1707 MIC
# [16] = Staphylococcus aureus, Table 2, MRSA BAA-1707, no metal(II) cation added, read-out: MIC
# [17] = Staphylococcus aureus, copper(II) at 200 µM co-treatment, read-out: MIC w/Cu2+
# [18] = Staphylococcus aureus, iron(II) at 200 µM co-treatment, read-out: MIC w/Fe2+
# [19] = Staphylococcus aureus, magnesium(II) at 200 µM co-treatment, read-out: MIC w/Mg2+
# [20] = Staphylococcus aureus, zinc(II) at 200 µM co-treatment, read-out: MIC w/Zn2+
# [21] = Table 1, three independent experiments
# [22] = Table 1, read-out: MIC MRSA BAA-44
# [23] = Staphylococcus epidermidis, MRSE, Table 3, read-out: MRSE 35984 MIC
# [24] = Enterococcus, VRE, Table 3, read-out: VRE 700221 MIC
# [25] = Staphylococcus aureus, 24 h, CBD, planktonic killing, 24 hours treatment, read-out: MRSA BAA-1707 MBC
# [26] = Staphylococcus aureus, 24 h, supplement page 27, second CBD plate, read-out: MRSA Planktonic Killing MBC
# [27] = supplement page 28, single CBD plate
compound,measurement,setting,value
"CCCCCCCCCCCCCCCC[N+](C)(C)Cc1ccccc1.[Cl-] [BAC-16, reference compound]",MIC,"MRSA BAA-1707 [1]; Table 1, three independent experiments, read-out: MIC MRSA BAA-1707",1.56 µM
same,MIC,"MRSA BAA-1707 [1]; Table 3, read-out: MRSA BAA-1707 MIC",1.56 µM
same,MIC,MRSE 35984 [2]; [11],1.56 µM
same,MIC,MRSE 35984 [2]; [12],1.56 µM
same,MIC,"VRE 700221 [3]; Table 1, read-out: MIC VRE 700221",3.13 µM
same,MIC,"VRE 700221 [3]; Table 3, read-out: VRE 700221 MIC",3.13 µM
same,MRSA BAA-1707 MBEC,"MRSA BAA-1707 [4]; CBD, biofilm eradication, 24 hours treatment",15.6 µM
same,MBC,MRSA BAA-1707 [4]; [13],31.3 µM
same,VRE 700221 MBEC,VRE 700221 [5]; CBD,3.0 µM
same,MBC,"VRE 700221 [5]; CBD, planktonic killing",5.9 µM
same,"MBEC, pulse treatment",MRSA-1707 biofilms,25 µM
"O=C(O)CN(CCN(CC(=O)O)CC(=O)O)CC(=O)O [EDTA, ethylenediaminetetraacetic acid, reference compound]",MIC,MRSA BAA-1707 [1]; [14],25 µM
same,MIC,MRSA BAA-1707 [1]; [15],25 µM
same,MIC,"MRSA-1; Table 1, read-out: MIC MRSA-1",12.5 µM
same,MIC,MRSA BAA-1707 [6]; [16],25 µM
same,MIC,MRSA BAA-1707 [6]; [17],50 µM
same,MIC,MRSA BAA-1707 [6]; [18],50 µM
same,MIC,MRSA BAA-1707 [6]; [19],50 µM
same,MIC,MRSA BAA-1707 [6]; [20],50 µM
same,MBC,"MRSA BAA-1707 [4]; Staphylococcus aureus, 24 h, read-out: MRSA BAA-1707 MBC",> 2000 µM
same,minimal effective concentration,"MRSA BAA-1707 [4]; Staphylococcus aureus, 24 h, read-out: MRSA BAA-1707 MBEC",> 2000 µM
same,minimal effective concentration,"MRSE 35984 [7]; Staphylococcus epidermidis, MRSE, 24 h, read-out: MRSE 35984 MBEC",> 2000 µM
same,MBC,"MRSE 35984 [7]; Staphylococcus epidermidis, MRSE",1000 µM
same,minimal effective concentration,"VRE 700221 [5]; Enterococcus, VRE, 24 h, read-out: VRE 700221 MBEC",93.8 µM
same,MBC,"VRE 700221 [5]; Enterococcus, VRE",> 2000 µM
same,Hemolysis at 200 µM (%),"human red blood cells; human, 1 h, pH 7.2",≤1%
Oc1c(Br)cc(Br)c2nc3c(Cl)cccc3nc12 [HP 21],MIC,MRSA BAA-1707 [1]; [14],0.05 to 0.3 µM
same,MIC,MRSA BAA-1707 [1]; [15],0.08 µM
same,MIC,"MRSA BAA-1707 [1]; Staphylococcus aureus, single plate shown as picture, read-out: MIC (µM), MIC Assay against MRSA BAA-1707",0.1 µM
same,MIC MRSA BAA-1707,MRSA BAA-1707 [1]; [21],0.08^a µM
same,MIC,MRSA BAA-44; [22],0.59 µM
same,MIC,"MRSA-1; Table 1, read-out: MIC MRSA-1",≤ 0.1 µM
same,MIC,"MRSA-1; single plate shown as picture, read-out: MIC (µM), MIC Assay Against MRSA-1",0.1 µM
same,MIC,MRSE 35984 [2]; [23],0.3 µM
same,MIC,"MRSE 35984 [2]; Staphylococcus epidermidis, MRSE, single plate shown as picture, read-out: MIC (µM), MIC Assay Against MRSE 35984",0.2 µM
same,MIC,VRE 700221 [3]; [24],1.56 µM
same,MIC,"VRE 700221 [3]; Enterococcus, VRE, single plate shown as picture, read-out: MIC (µM), MIC Assay Against VRE 700221",1.56 µM
same,MIC,MtB H37Ra,50 µM
same,IC50 at 24 h,[8],> 100 µM
same,MIC,"MRSA BAA-1707 [6]; Staphylococcus aureus, Fe(II) co-treatment plate, lanes without metal, read-out: MIC",0.1 µM
same,MIC,MRSA BAA-1707 [6]; [16],0.1 µM
same,MIC,"MRSA BAA-1707 [6]; Staphylococcus aureus, Zn(II) extended plate assay, lanes without metal, read-out: MIC",0.1 µM
same,MIC,MRSA BAA-1707 [6]; [17],6.25 µM
same,MIC,MRSA BAA-1707 [6]; [18],0.59 µM
same,MIC,MRSA BAA-1707 [6]; [19],0.15 µM
same,MIC,MRSA BAA-1707 [6]; [20],0.15 µM
same,MIC,"MRSA BAA-1707 [6]; extended plate assay, 200 µM Zn(II), read-out: MIC (µM) + Zn(II)",0.10 µM
same,MIC,"MRSA BAA-1707 [6]; single plate, 200 µM Fe(II), read-out: MIC (µM) + Fe(II)",0.78 µM
same,rate of copper(II) chelation,UV-Vis metal(II) binding,faster rate than HP 1
same,MBC,MRSA BAA-1707 [4]; [25],6.25 µM
same,MBC,MRSA BAA-1707 [4]; [26],6.25 µM
same,VRE 700221 MBEC,VRE 700221 [5]; CBD,25/25 µM
same,MBC,"VRE 700221 [5]; Enterococcus, VRE, CBD, planktonic killing",25 µM
same,MIC,four MRSA isolates,0.05 to 0.59 µM
same,"hemolysis at 1 h, 200 µM",[9],≤ 1%
COCCOCCOCCOCCOC(=O)Oc1c(Br)cc(Br)c2nc3ccccc3nc12 [HP 24],MIC,"MRSA BAA-44; single plate shown as picture, read-out: MIC (µM), MIC Assay Against MRSA BAA-44",1.56 µM
same,MIC,MRSA BAA-44; [22],1.56 µM
same,MIC,"MRSA-2; Staphylococcus aureus, MRSA",2.35 µM
same,MIC,"MRSE 35984 [2]; Staphylococcus epidermidis, MRSE, Table 1, read-out: MIC MRSE 35984",1.56 µM
same,MIC,MRSE 35984 [2]; [23],1.56 µM
same,MIC,S. epi 12228,0.78 µM
same,MIC,"VRE 700221 [3]; Enterococcus, VRE, Table 1, read-out: MIC VRE 700221",6.25 µM
same,MIC,VRE 700221 [3]; [24],6.25 µM
same,MIC,MtB H37Ra,25 µM
same,IC50 at 24 h,[8],> 100 µM
same,HeLa cell cytotoxicity at 100 µM,HeLa cells,no HeLa cell cytotoxicity
same,MBC,MRSA BAA-1707 [4]; [25],75 µM
same,MBC,MRSA BAA-1707 [4]; [26],100 µM
same,MBC,"MRSE 35984 [7]; Staphylococcus epidermidis, MRSE, CBD, planktonic killing",75 µM
same,MRSE Biofilm Eradication MBEC,MRSE 35984 [7]; [27],100 µM
same,MRSE Planktonic Killing MBC,MRSE 35984 [7]; [27],50 µM
same,chemically stable in aqueous formulations,[10],> 1 month
same,"hemolysis at 1 h, 200 µM",[9],2.4%
"c1ccc(CN(CCN(Cc2ccccn2)Cc2ccccn2)Cc2ccccn2)nc1 [TPEN, reference compound]",MIC MRSA BAA-1707,MRSA BAA-1707 [1]; [21],46.9^a µM
same,MRSA BAA-1707 MIC,MRSA BAA-1707 [1]; Table 3,46.9^a µM
same,MIC MRSA-1,MRSA-1; Table 1,75^a µM
same,MIC,MRSA-2,50 µM
same,MIC,MRSE 35984 [2]; [11],12.5 µM
same,MIC,MRSE 35984 [2]; [12],12.5 µM
same,MIC,"MRSA BAA-1707 [6]; Table 2, MRSA BAA-1707, no metal(II) cation added",46.9^a µM
same,MIC,"MRSA BAA-1707 [6]; copper(II) at 200 µM co-treatment, read-out: MIC w/Cu2+",500 µM
same,MIC,"MRSA BAA-1707 [6]; iron(II) at 200 µM co-treatment, read-out: MIC w/Fe2+",125 µM
same,MIC,"MRSA BAA-1707 [6]; magnesium(II) at 200 µM co-treatment, read-out: MIC w/Mg2+",62.5 µM
same,MIC,"MRSA BAA-1707 [6]; zinc(II) at 200 µM co-treatment, read-out: MIC w/Zn2+",250 µM
same,MBC,MRSA BAA-1707 [4]; [13],375 µM
same,MRSA-1707 Biofilm Eradication MBEC,"MRSA BAA-1707 [4]; Figure 7A, single CBD plate",> 2000 µM
same,MBC,"MRSA BAA-1707 [4]; Figure 7A, single CBD plate, read-out: MRSA-1707 Planktonic Eradication MBC",250 µM
same,MRSA Biofilm Eradication MBEC,"MRSA BAA-1707 [4]; supplement page 27, first CBD plate",> 2000 µM
same,MBC,"MRSA BAA-1707 [4]; supplement page 27, first CBD plate, read-out: MRSA Planktonic Killing MBC",250 µM
same,MRSE 35984 MBEC,"MRSE 35984 [7]; CBD, biofilm eradication",> 2000 µM
same,MBC,"MRSE 35984 [7]; CBD, planktonic killing",250 µM
same,Hemolysis at 200 µM (%),human red blood cells,≤1%
